Source: article PMC10165357, “Brain p3‐Alcβ peptide restores neuronal viability impaired by Alzheimer's amyloid β‐peptide” (EMBO Molecular Medicine, 2023)
Ends that are not written are not given here.

How the values were obtained:
[1] = tested on: Aβo-induced Ca2+ influx in mouse primary neurons; test: Aβ42 oligomer-induced Ca2+ influx, Fluo 4-AM (Fig 3A, 3B, 4A, 4D, EV2A, EV2B); type: cell-based; details: neurons div 14, Aβo 5.2 μM
[2] = tested on: Ca2+ influx in mouse primary neurons; test: Ca2+ influx after CaCl2 administration in Ca2+-depleted medium, Fluo 4-AM (Fig 3C, 3D, 4C); type: cell-based; details: neurons div 11–14, CaCl2 2 mM, D-AP5 5, 50 and 200 μM; AUC 5–14 min; n = 6
Procedure: All animal studies were conducted in compliance with the ARRIVE guidelines. The mouse study was approved by the Animal Studies Committee of Hokkaido University (#18‐0168). WT C57BL/6J (CLEA, Japan, Inc), Alcβ‐KO (RBRC11514) (Gotoh et al, [2020]), App ^ NL‐F/NL‐F (RBRC06343), and App ^ NL‐G‐F/NL‐G‐F (RBRC06344) (Saito et al, [2014]) mice were housed in specific pathogen‐free (SPF) conditions with a microenvironment vent system (Allentown Inc., Allentown, NJ, USA) under a 12 h/12 h light/dark cycle with free access to food and water. Three to five male or female siblings were housed in each cage; cages were equipped with microbarrier tops. All experimental procedures with Cynomolgus monkeys were approved by the Animal Care and Use Committee of Shiga University of Medical Science and were carried out in accordance with approved guidelines (Nishimura et al, [2012]). Stored frozen pieces of the cerebral cortex of monkeys were used. Sprague–Dawley rats (8‐week‐old) were purchased from Japan SLC Inc. (Hamamatsu, Japan) and housed with their littermates. […] All animal protocols and related experiments were approved by the Ethics Committees of the Central Research Laboratory at Hamamatsu Photonics and Hamamatsu University School of Medicine. […]

[3] = tested on: mitochondrial activity; details: ref Singh et al, 2017; cited from earlier work
Excerpt: Therefore, we would like to re‐emphasize that the function of p3‐Alcβ is to increase neuronal viability and to protect neurons against Aβ‐induced toxicity, and that the target of p3‐Alcβ may not directly be Aβ peptide and Aβ aggregates/plaques. This property of p3‐Alcβ as a druggable candidate for AD therapy is likely to be distinct from immunotherapies that use anti‐Aβ antibodies. Furthermore, the fu ...

[4] = WT mice, s.c. injection 5 mg/kg, n = 4 per time point
Excerpt: IgG was purified with antigen‐coupled resin and conjugated to biotin. Horseradish peroxidase‐conjugated streptavidin was purchased from Amersham/GE Healthcare (Cat #RPN1051, Little Chalfont, UK), and the tetramethyl benzidine (TMB) microwell peroxidase substrate system was obtained from SeraCare Life Sciences Inc. (Cat #5120‐0075, Milford, MA, USA). Mice were then anesthetized with 1% isoflurane, CSF was collected from the cisterna magna as described previously (Liu & Duff, [2008]), and mice were then sacrificed. […] The sensitivity of this ELISA is equivalent to that of other sELISA systems used to quantify p3‐Alcβ37 and p3‐Alcβ40 (Hata et al, [2019]). Antiserum diluted 1:10,000 was used as a capture antibody in the sELISA. The antibody was affinity‐purified with antigen‐coupled resin, and biotin‐labeled IgG was then used as the detection antibody.

[5] = Alcβ-KO mice, subcutaneous administration

Compound: NC(CCCP(=O)(O)O)C(=O)O (stereo not drawn) [D‐AP5]
- Aβo-induced Ca2+ entry with NMDA antagonist (Fig 4A) ([1]; D-AP5 50 μM, AUC 5–29 min, n = 4): suppressed
- suppression of Aβo-triggered Ca2+ influx, single agents (Fig 4D) ([1]; p3-Alcβ9-19 50 μM or D-AP5 50 μM, AUC 5–28 min, n = 12): suppressed significantly
- Ca2+ influx after Ca2+ administration with D-AP5 (Fig 4C) [2]: slightly, but not significantly, reduced

Compound: CC12CC3CC(C)(C1)CC(N)(C3)C2 [memantine]
- mitochondrial activity [3]: does not increase mitochondrial activity

Compound: HRGHQPPPEMA [p3‐Alcβ9‐19]
- transfer into the brain, p3-Alcβ9-19 levels in CSF by sELISA [4]: successful transfer

Compound: VLSSQQFLHRGHQPPPEMAGHSLASSHRNSMIPSAAT [p3‐Alcβ37]
- transport into the brain [5]: transported into the brain
